The record followed here is ChEMBL document CHEMBL4229467, “Acyl Glucuronide Metabolites of 6-Chloro-5-[4-(1-hydroxycyclobutyl)phenyl]-1 H-indole-3-carboxylic Acid (PF-06409577) and Related Indole-3-carboxylic Acid Derivatives are Direct Activators of Adenosine Monophosphate-Activated Protein Kinase (AMPK)” (J Med Chem, 2018).

Data set [1] can be described thus: Drug level in human hepatocytes treated with 6-chloro-5-(6-(dimethylamino)-2-methoxypyridin-3-yl)-1H-indole-3-carboxylic acid at 10 uM after 4 hrs by HPLC-UV analysis. The format is ADME, cell-based, Hepatocyte.
Data set [2] is described as follows: Half life in human primary hepatocytes at 10 uM. Format: ADME, cell-based, Hepatocyte.
The nature of data set [3]: Intrinsic clearance in human primary hepatocytes assessed per million cells. Format: ADME, cell-based, Hepatocyte. The following applies: read-out: CLH.
Data set [4] can be described thus: Half life of the compound in deuteriated phosphate buffer at pH 7.4 at 37 degC measured every 25 mins for 21 hrs by 1H NMR analysis. Format: physicochemical.
A short description of the next data set: physchem. The settings on record: in vivo, pH 7.4.
In another data set the test system is Hepatocyte. The following applies: human, hepatocytes, 4 h, 10 µM.
A short description of data set [5]: in vitro. The settings on record: dog, MDCK.
Description: Apparent passive permeability of the compound in RRCK cells by FACS analysis
Data set [6] in a line: Drug metabolism in human hepatocytes assessed as (2S,3S,4S,5R,6S)-6-((4,6-Difluoro-5-(4-((S)-tetrahydro-2H-pyran-2-yl)phenyl-1H-indole-3-carbonyl)oxy)-3,4,5-trihydroxytetrahydro-2H-pyran-2-carboxylic acid formation at 10 uM after 4 hrs by HPLC-UV analysis. The format is ADME, cell-based, Hepatocyte.
The target in data set [7] is AMP-activated protein kinase (AMPK) alpha-1/beta-1/gamma-1 (Homo sapiens) (UniProt P54619+Q9Y478+Q13131).
Chain of AMP-activated protein kinase (AMPK) alpha-1/beta-1/gamma-1 (Homo sapiens) (P54619 whole entry): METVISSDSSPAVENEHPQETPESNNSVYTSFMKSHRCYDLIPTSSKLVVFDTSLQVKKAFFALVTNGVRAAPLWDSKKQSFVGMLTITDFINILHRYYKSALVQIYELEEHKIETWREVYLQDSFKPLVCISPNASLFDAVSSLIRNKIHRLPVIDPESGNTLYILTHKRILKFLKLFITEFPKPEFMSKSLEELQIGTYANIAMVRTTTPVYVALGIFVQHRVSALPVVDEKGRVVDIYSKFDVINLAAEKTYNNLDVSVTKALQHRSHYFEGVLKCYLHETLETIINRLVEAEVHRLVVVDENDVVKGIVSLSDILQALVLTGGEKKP
Chain of AMP-activated protein kinase (AMPK) alpha-1/beta-1/gamma-1 (Homo sapiens) (Q13131 whole entry partner): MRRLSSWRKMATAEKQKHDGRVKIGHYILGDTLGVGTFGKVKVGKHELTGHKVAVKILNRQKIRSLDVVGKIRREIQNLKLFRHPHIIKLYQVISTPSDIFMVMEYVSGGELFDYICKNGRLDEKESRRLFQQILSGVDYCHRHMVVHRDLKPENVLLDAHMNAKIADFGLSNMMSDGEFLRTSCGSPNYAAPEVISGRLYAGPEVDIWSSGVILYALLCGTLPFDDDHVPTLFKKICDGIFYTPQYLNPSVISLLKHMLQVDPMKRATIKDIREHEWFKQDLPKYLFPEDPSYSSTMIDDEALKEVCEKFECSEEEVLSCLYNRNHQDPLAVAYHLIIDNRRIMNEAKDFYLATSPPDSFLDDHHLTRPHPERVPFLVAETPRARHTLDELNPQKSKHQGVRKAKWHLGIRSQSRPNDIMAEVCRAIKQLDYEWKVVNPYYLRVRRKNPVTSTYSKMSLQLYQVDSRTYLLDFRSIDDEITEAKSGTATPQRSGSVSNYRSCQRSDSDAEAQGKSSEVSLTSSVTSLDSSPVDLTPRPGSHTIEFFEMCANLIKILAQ
Chain of AMP-activated protein kinase (AMPK) alpha-1/beta-1/gamma-1 (Homo sapiens) (Q9Y478 2-270 partner limits assumed): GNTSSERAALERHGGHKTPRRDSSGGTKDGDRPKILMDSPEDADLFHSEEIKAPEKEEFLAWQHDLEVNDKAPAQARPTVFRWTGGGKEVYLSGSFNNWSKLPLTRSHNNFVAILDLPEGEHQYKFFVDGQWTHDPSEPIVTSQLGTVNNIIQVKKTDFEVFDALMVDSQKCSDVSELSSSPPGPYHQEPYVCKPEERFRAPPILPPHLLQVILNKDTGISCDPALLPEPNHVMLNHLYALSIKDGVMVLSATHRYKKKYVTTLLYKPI
Description: Binding affinity to Bap-tagged human AMPKalpha1beta1gamma1 expressed in Escherichia coli BL21 cells assessed as dissociation half life by SPR analysis
Another data set concerns the target AMPK alpha2/beta2/gamma1 (Homo sapiens, UniProt O43741+P54619+P54646). In words: biochemical.
Data set [8] in a line: Drug level in human hepatocytes treated with (S)-4,6-difluoro-5-(4-(tetrahydro-2H-pyran-2-yl)phenyl)-1H-indole-3-carboxylic acid at 10 uM after 4 hrs by HPLC-UV analysis. Format: ADME, cell-based, Hepatocyte.
For a further data set, the target named is AMPK alpha2/beta2/gamma3 (Homo sapiens, UniProt O43741+P54646+Q9UGI9). In words: biochemical.
Chain of AMPK alpha2/beta2/gamma3 (P54646 whole entry): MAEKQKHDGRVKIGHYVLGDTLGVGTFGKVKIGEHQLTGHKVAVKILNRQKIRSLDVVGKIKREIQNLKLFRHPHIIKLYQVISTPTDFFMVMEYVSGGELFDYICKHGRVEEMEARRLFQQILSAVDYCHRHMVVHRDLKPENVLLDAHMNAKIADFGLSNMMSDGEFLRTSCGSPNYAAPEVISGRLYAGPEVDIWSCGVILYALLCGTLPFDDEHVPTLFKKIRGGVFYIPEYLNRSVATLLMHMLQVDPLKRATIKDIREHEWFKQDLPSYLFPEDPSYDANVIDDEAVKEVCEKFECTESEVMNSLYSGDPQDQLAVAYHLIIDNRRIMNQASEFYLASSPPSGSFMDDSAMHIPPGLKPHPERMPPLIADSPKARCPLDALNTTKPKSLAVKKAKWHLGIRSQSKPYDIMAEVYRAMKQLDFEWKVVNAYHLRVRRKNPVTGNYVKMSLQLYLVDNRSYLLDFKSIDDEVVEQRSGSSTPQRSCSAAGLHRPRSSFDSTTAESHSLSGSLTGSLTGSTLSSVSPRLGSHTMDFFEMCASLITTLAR
Chain of AMPK alpha2/beta2/gamma3 (O43741 whole entry): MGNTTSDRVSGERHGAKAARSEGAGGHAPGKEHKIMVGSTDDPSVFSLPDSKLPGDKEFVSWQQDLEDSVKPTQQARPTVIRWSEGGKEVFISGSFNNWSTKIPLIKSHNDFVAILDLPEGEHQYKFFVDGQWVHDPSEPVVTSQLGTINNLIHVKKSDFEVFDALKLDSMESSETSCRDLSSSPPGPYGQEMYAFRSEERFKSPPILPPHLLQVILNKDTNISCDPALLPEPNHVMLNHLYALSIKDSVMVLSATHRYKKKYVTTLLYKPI
Chain of AMPK alpha2/beta2/gamma3 (Q9UGI9 whole entry): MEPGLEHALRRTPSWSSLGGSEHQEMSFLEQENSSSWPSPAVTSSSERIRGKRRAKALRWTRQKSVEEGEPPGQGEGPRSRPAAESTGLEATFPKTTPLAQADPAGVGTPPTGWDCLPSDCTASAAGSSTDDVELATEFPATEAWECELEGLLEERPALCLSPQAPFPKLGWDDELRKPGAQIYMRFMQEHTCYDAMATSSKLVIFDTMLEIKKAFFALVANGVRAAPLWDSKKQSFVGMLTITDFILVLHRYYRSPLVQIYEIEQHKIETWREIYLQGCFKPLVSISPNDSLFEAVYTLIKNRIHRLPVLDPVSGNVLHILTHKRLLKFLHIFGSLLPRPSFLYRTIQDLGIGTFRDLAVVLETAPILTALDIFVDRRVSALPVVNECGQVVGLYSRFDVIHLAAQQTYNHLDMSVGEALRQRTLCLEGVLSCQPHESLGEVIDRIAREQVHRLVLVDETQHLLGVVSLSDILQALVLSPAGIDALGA
In the next data set the target is AMPK alpha1/beta2/gamma1 (Homo sapiens, UniProt O43741+P54619+Q13131). Nature of the data set: biochemical.
Chain of AMPK alpha1/beta2/gamma1 (O43741 whole entry): as the sequence (O43741 whole entry) above
Chain of AMPK alpha1/beta2/gamma1 (P54619 whole entry): as the sequence (P54619 whole entry) above
Chain of AMPK alpha1/beta2/gamma1 (Q13131 whole entry): as the sequence (Q13131 whole entry partner) above
Data set [9] deals with T1, AMP-activated protein kinase (AMPK) alpha-1/beta-1/gamma-1 (Homo sapiens, UniProt P54619+Q13131+Q9Y478). Nature of the data set: biochemical.
T1 sequence (P54619 whole entry): as the sequence (P54619 whole entry) above
T1 sequence (Q9Y478 whole entry): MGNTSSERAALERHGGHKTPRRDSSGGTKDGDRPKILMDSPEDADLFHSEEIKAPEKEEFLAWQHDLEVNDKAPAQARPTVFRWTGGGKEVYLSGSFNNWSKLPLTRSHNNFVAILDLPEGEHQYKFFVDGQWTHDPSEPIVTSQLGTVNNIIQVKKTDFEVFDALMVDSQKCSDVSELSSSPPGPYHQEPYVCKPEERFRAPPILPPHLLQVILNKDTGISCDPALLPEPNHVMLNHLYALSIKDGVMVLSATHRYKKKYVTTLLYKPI
T1 sequence (Q13131 whole entry): as the sequence (Q13131 whole entry partner) above
Description: Binding affinity to Bap-tagged human AMPKalpha1beta1gamma1 expressed in Escherichia coli BL21 cells by SPR analysis
A further data set addresses AMPK alpha2/beta1/gamma1 (Homo sapiens, UniProt P54619+P54646+Q9Y478). Nature of the data set: biochemical.
Data set [10] deals with T1, AMP-activated protein kinase (AMPK) alpha-1/beta-1/gamma-1. Nature of the data set: biochemical. The source holds these as a separate data set.
Description: Activation of full-length recombinant N-terminal His-tagged human AMPKalpha1beta1gamma1 expressed in Escherichia coli BL21 cells using Cy-5 SAMS peptide as substrate preincubated for 60 mins followed by substrate addition and measured after 60 mins in presence of PP2a by TR-FRET assay
Data set [11] can be described thus: Drug level in human hepatocytes treated with 6-chloro-5-[4-(1-hydroxycyclobutyl)phenyl]-1H-indole-3-carboxylic acid at 10 uM after 4 hrs by HPLC-UV analysis. Format: ADME, cell-based, Hepatocyte.
Data set [12] can be described thus: AUC (0 to 24 hrs) in Wistar Han rat at 0.5 mg/kg, iv by LC-MS/MS analysis. The following applies: in vivo. Format: ADME, organism-based. The arrangement: time < 24 hr, dose 0.5 mg/kg, route intravenous.
Data set [13] can be described thus: in vivo. The following applies: cynomolgus monkey, iv, 1 mg/kg.
Description: Half life in cynomolgus monkey at 1 mg/kg, iv by LC-MS/MS analysis
Data set [14] is described as follows: Volume of distribution at steady state in Wistar Han rat at 0.5 mg/kg, iv by LC-MS/MS analysis. Format: ADME, organism-based. The settings on record: in vivo, read-out: Vdss.
A short description of data set [15]: Half life in Wistar Han rat at 0.5 mg/kg, iv by LC-MS/MS analysis. Format: ADME, organism-based. The following applies: in vivo.
Data set [16] can be described thus: Drug recovery in Wistar Han rat urine assessed as unchanged parent compound level at 0.5 mg/kg, iv by LC-MS/MS analysis. The following applies: read-out: Drug recovery. The format is ADME, organism-based.
Data set [17] is described as follows: Half life in human hepatocytes. Format: ADME, cell-based, Hepatocyte.
The nature of data set [18]: in vitro. The settings on record: rhesus monkey, plasma.
Description: Protein binding in monkey plasma assessed as unbound fraction
A short description of data set [19]: in vivo. The following applies: cynomolgus monkey, plasma, iv, 1 mg/kg.
Data set [20] is described as follows: Intrinsic clearance in monkey hepatocytes assessed per million cells. The format is ADME, cell-based, Macaca mulatta, Hepatocyte. The following applies: rhesus monkey, read-out: CLH.
Data set [21] can be described thus: in vivo. The following applies: cynomolgus monkey, iv, 1 mg/kg. The source holds these as a separate data set.
Data set [22] can be described thus: in vivo. The settings on record: cynomolgus monkey, urine, iv, 1 mg/kg.
Description: Drug recovery in cynomolgus monkey urine assessed as unchanged parent compound level at 1 mg/kg, iv by LC-MS/MS analysis
The nature of data set [23]: Intrinsic clearance in human hepatocytes assessed per million cells. The format is ADME, cell-based, Hepatocyte. The following applies: read-out: CLH.
Data set [24] can be described thus: Half life in monkey hepatocytes. The format is ADME, cell-based, Macaca mulatta, Hepatocyte. The settings on record: rhesus monkey.
Data set [25] in a line: Plasma clearance in Wistar Han rat at 0.5 mg/kg, iv by LC-MS/MS analysis. The format is ADME, organism-based.
Data set [26] is described as follows: Intrinsic clearance in rat hepatocytes assessed per million cells. Format: ADME, cell-based, Hepatocyte. The following applies: read-out: CLH.
Data set [27] in a line: Half life in rat hepatocytes. The format is ADME, cell-based, Hepatocyte.
Data set [28] in a line: in vitro. The settings on record: human, plasma.
Description: Protein binding in human plasma assessed as unbound fraction
A short description of data set [29]: in vitro. The following applies: rat, plasma.
Description: Protein binding in rat plasma assessed as unbound fraction
A further data set has as its system Rattus norvegicus. Nature of the data set: AUC (0 to 24 hrs) in Wistar Han rat assessed as 6-chloro-5-[4-(1-hydroxycyclobutyl)phenyl]-1H-indole-3-carboxylic acid level at 0.5 mg/kg, iv by LC-MS/MS analysis. The following applies: in vivo. Format: ADME, organism-based. The arrangement: time < 24 hr, dose 0.5 mg/kg, route intravenous.
The nature of data set [30]: in vivo. The following applies: cynomolgus monkey, iv, 1 mg/kg. This is another data set of the same source.
Description: Volume of distribution at steady state in cynomolgus monkey at 1 mg/kg, iv by LC-MS/MS analysis
The test system of a further data set is Cynomolgus monkey. Nature of the data set: AUC (0 to 24 hrs) in cynomolgus monkey assessed as 6-chloro-5-[4-(1-hydroxycyclobutyl)phenyl]-1H-indole-3-carboxylic acid level at 0.5 mg/kg, iv by LC-MS/MS analysis. The format is ADME, organism-based, Macaca fascicularis. The arrangement: dose 0.5 mg/kg, time < 24 hr, route intravenous. The following applies: in vivo.

Chain of AMPK alpha2/beta2/gamma1 (P54646 whole entry): as the sequence (P54646 whole entry) above
Chain of AMPK alpha2/beta2/gamma1 (O43741 whole entry): as the sequence (O43741 whole entry) above
Chain of AMPK alpha2/beta2/gamma1 (P54619 whole entry): as the sequence (P54619 whole entry) above
Chain of AMPK alpha2/beta1/gamma1 (P54646 whole entry): as the sequence (P54646 whole entry) above
Chain of AMPK alpha2/beta1/gamma1 (P54619 whole entry): as the sequence (P54619 whole entry) above
Chain of AMPK alpha2/beta1/gamma1 (Q9Y478 whole entry): as the sequence (Q9Y478 whole entry) above
Description for AMPK alpha1/beta2/gamma1: Activation of full-length recombinant N-terminal His-tagged human AMPKalpha1beta2gamma1 expressed in Escherichia coli BL21 cells using Cy-5 SAMS peptide as substrate preincubated for 60 mins followed by substrate addition and measured after 60 mins in presence of PP2a by TR-FRET assay
Description for AMPK alpha2/beta1/gamma1: Activation of full-length recombinant N-terminal His-tagged human AMPKalpha2beta1gamma1 expressed in Escherichia coli BL21 cells using Cy-5 SAMS peptide as substrate preincubated for 60 mins followed by substrate addition and measured after 60 mins in presence of PP2a by TR-FRET assay
Description for AMPK alpha2/beta2/gamma1: Activation of full-length recombinant N-terminal His-tagged human AMPKalpha2beta2gamma1 expressed in Escherichia coli BL21 cells using Cy-5 SAMS peptide as substrate preincubated for 60 mins followed by substrate addition and measured after 60 mins in presence of PP2a by TR-FRET assay
Description for AMPK alpha2/beta2/gamma3: Activation of full-length recombinant N-terminal His-tagged human AMPKalpha2beta2gamma3 expressed in Escherichia coli BL21 cells using Cy-5 SAMS peptide as substrate preincubated for 60 mins followed by substrate addition and measured after 60 mins in presence of PP2a by TR-FRET assay
Description for Hepatocyte: Retention time of the compound in human hepatocytes at 10 uM after 4 hrs by HPLC-UV analysis

Turning to `COc1nc(N(C)C)ccc1-c1cc2c(C(=O)O[C@@H]3O[C@H](C(=O)O)[C@@H](O)[C@H](O)[C@H]3O)c[nH]c2cc1Cl`, the Drug metabolism result in data set [1] is reported as “Metabolite_Detected”. In data set [2], the half-life (as a rule, how long it takes for the measured level to halve) at 10 µM is above 6.67 h. The hepatocyte CLint in data set [3] is below 3 µL/min/1e6 cells. This molecule also came in with a half-life in [4] above 21 h. In addition, the logD (as a rule, lipophilicity at a set pH, counting ionised and neutral species) at 1 h in “physchem” was -0.05. Moreover, the Retention_time in the data set with Hepatocyte is on record as 7.96 min. For the same molecule, in “in vitro [5]”, the Papp (in general, the rate of passage across a membrane or cell layer, normalised by area and donor concentration) was found to be 0.3 ×10⁻⁶ cm/s.
In turn, `O=C(O)c1c[nH]c2cc(F)c(-c3ccc([C@@H]4CCCCO4)cc3)c(F)c12` yielded a logD at 1 h in the data set “physchem” of 1.8. For the same molecule, the Retention_time in the data set with Hepatocyte came out at 9.72 min. The Drug metabolism result in data set [6] is on record as “Metabolite_Detected”.
`O=C(O[C@@H]1O[C@H](C(=O)O)[C@@H](O)[C@H](O)[C@H]1O)c1c[nH]c2cc(F)c(-c3ccc([C@@H]4CCCCO4)cc3)c(F)c12` had a T1/2 in [7] of 15.3 s. Also, the EC50 (in general, the concentration at which the effect is half-maximal) on AMPK alpha2/beta2/gamma1 is above 40000 nM; at AMPK alpha2/beta2/gamma3, above 40000 nM; on AMPK alpha1/beta2/gamma1, above 40000 nM; on AMPK alpha2/beta1/gamma1, 332 nM; in data set [10], 59 nM. Also, the Drug metabolism result in [8] was “Metabolite_Detected”. Besides, the half-life in data set [4] is above 21 h. The molecule further gave a log distribution coefficient (logD) at 1 h in the data set “physchem” of 0.08. For the same molecule, the Retention_time in the data set with Hepatocyte came to 8.37 min. The molecule further gave an apparent permeability (Papp) in “in vitro [5]” of 0.3 ×10⁻⁶ cm/s. Also, the Kd (as a rule, the constant that tells how readily two partners part at equilibrium) in data set [9] was found to be 198 nM.
`COc1nc(N(C)C)ccc1-c1cc2c(C(=O)O)c[nH]c2cc1Cl`: the logD at 1 h in “physchem” was found to be 2.3.
As to `O=C(NO)c1c[nH]c2cc(Cl)c(-c3ccc(C4(O)CCC4)cc3)cc12`, the Drug metabolism result in data set [11] is recorded as “Metabolite_Detected”. In the data set with Hepatocyte, this molecule came in with a Retention_time of 7.25 min.
For the molecule `O=C(O[C@@H]1O[C@H](C(=O)O)[C@@H](O)[C@H](O)[C@H]1O)c1c[nH]c2cc(Cl)c(-c3ccc(C4(O)CCC4)cc3)cc12`, the area under the curve AUC(0-t) – broadly, exposure summed from dosing to a finite time, without extrapolation to infinity – at 24 h in data set [12] worked out at 8850 ng·h/mL; in “in vivo [21]” it was 1750 ng·h/mL. Further, the half-life in the data set “in vivo [13]” was 18 h; in [15], 6.96 h; in data set [17] it was above 4 h; in data set [4] it was above 21 h; in [24], above 4 h; in data set [27], above 4 h. The Vd in data set [14] was 0.4 L/kg; in the data set “in vivo [30]”, 4.52 L/kg. In addition, in [11], the Drug metabolism result is “Metabolite_Detected”. The half-life at 10 µM in data set [2] was above 6.67 h. Moreover, the dose excreted in data set [16] turned out to be 1%; in the data set “in vivo [22]” it was 9.8%. The fraction unbound (commonly free concentration divided by total concentration) was 0.028 in the data set “in vitro [18]”, 0.019 in “in vitro [28]” and 0.0018 in “in vitro [29]”. Moreover, the hepatocyte CLint was below 3 µL/min/1e6 cells in data set [3], below 6 µL/min/1e6 cells in data set [20], below 6 µL/min/1e6 cells in data set [23] and below 6 µL/min/1e6 cells in [26]. Besides, the values for the clearance (in the data set “in vivo [19]”; in data set [25]) were 9.85 mL/min/kg and 0.99 mL/min/kg, respectively. The same molecule yielded a logD at 1 h in the data set “physchem” of -0.14. In the data set with Hepatocyte, the Retention_time is listed as 7.09 min. In “in vitro [5]”, this molecule registered a Papp of 0.6 ×10⁻⁶ cm/s. The AUC (commonly concentration integrated over time) came to 101 ng·h/mL with Rattus norvegicus and 303 ng·h/mL in the data set with Cynomolgus monkey.
